Measured values from ChEMBL document CHEMBL3507680, “University of Dundee, Gates Library screen for HepG2 cell viability”.

Assay: Human HepG2 cell viability assay in 384 well format
Format: toxicity, cell-based
Set-up: dose 125 nL, time 70.5 hour; concentration not given beside the values
Details: HepG2 cells, read-out: Inhibition

Compound | cytotoxicity at 70.5 h
O=C(NCc1ccccc1OCC1CC1)C1CCOC1 (stereo not given) | 1.2%
CSCc1nc(CCNC(=O)c2cnn(C(C)C)c2)cs1 | -1.66%
c1ccc(-c2cc(CN3CCCC(Cn4cncn4)C3)on2)cc1 (stereo not given) | -1.24%
Cc1ccccc1CCCN1CCS(=O)(=O)CC1C (stereo not given) | -6.59%
CN1Cc2c(C(=O)Nc3cccnc3)ncn2-c2ccccc2S1(=O)=O | -8.44%
Cn1c(-c2ccccc2)nn(CCNS(=O)(=O)c2ccccc2Cl)c1=O | 0.396%
CCN(C)C(C(=O)Nc1ccc2c(c1)CCC(=O)N2)c1ccccc1 (stereo not given) | -15.5%
CN(C)C1COC2(CCN(S(=O)(=O)c3ccc(F)cc3)CC2)C1 (stereo not given) | -13.4%
COC(=O)CNC(=O)CCc1cc(Br)cs1 | -3.56%
Cn1cc(NC(=O)NC2CCCN(c3ccccc3Cl)C2=O)cn1 (stereo not given) | -5.63%
CCCS(=O)(=O)CCN1CCN(C(C#N)c2ccccc2)CC1 (stereo not given) | -8.86%
CNC(=O)[C@H]1C[C@@H]2CN(Cc3cccnc3OC)C[C@@H]2N1C(C)=O | -9.57%
O=S(=O)(NCCSc1nncn1C1CC1)c1ccccc1 | 30.9%
Cc1cc(F)ccc1OC1(C(=O)O)CCN(Cc2c[nH]cn2)CC1 | -4.85%
Clc1cccc(-n2cnnn2)c1N1CCOCC1 | -5.42%
CS(=O)(=O)c1ccccc1-n1cc(NC(=O)CC(F)(F)F)cn1 | -4.54%
Cc1cnn(C2CN(CC(=O)NCCc3ccsc3)C2)c1 | -13.7%
O=C1Nc2ccccc2/C1=C1\CCCCCN1 | -9.34%
Cn1ncc(N2CCC(CNC3Cc4ccccc4C3)C2)cc1=O (stereo not given) | 3.7%
CCCc1cc(CNC(=O)Cc2cc(C)no2)on1 | 1.19%
COC(=O)C1CCCN1CC(=O)NCc1ccc(OCC(N)=O)cc1 (stereo not given) | 4.54%
CC(NC(=O)NCC1(N2CCCCC2)CCCCC1)c1nncn1C (stereo not given) | -20.6%
O=C(c1ccc(N2CCCC2)nn1)N1CCc2ccccc21 | 0.119%

Compound | cytotoxicity at 70.5 h
Cc1cc2c(cc1C)OC1(C=C2)CCN(CC(=O)N2CCOCC2)CC1 | -8.77%
CC1CN(C)CCN1C(=O)c1cnn(-c2cccc(Cl)c2)c1 (stereo not given) | -9.03%
CN1CCN(Cc2cccnc2)C(=O)C12CCN(CC1CCOC1)CC2 (stereo not given) | -6.06%
COc1ccc(OC)c(C(C)NS(=O)(=O)c2cnn(C)c2)c1 (stereo not given) | -12%
CCn1cc(CN2CCC(CCC(=O)Nc3ccccc3Cl)CC2)cn1 | 12.4%
CSCC(CCO)Nc1cccc(C(F)(F)F)n1 (stereo not given) | -1.51%
CCCS(=O)(=O)N(C)C(=O)CCc1ccsc1 | 0.207%
CC(=O)N1CCC(n2nccc2-c2cnc(N3CCCC3)nc2)CC1 | -9%
Cc1ccoc1C(=O)N1CCc2ncnc(-c3cnn(C)c3)c2CC1 | 24.7%
CC(C)(C)c1nc(CNc2cc3c(cc2Cl)NC(=O)CO3)no1 | -7.93%
Cc1nc(-c2cnn(C)c2)nc2c1CN(C(=O)c1ccc[nH]1)CC2 | -6.12%
CCC[C@H]1CN(c2nccc(OC)n2)C[C@@H]1NC(=O)C1CCOCC1 | -6.8%
CCN(C)CC1CCN(C(=O)Nc2ccc(C)cc2)C1 (stereo not given) | -3.05%
CS(=O)(=O)NCCCN1CCCC1c1ccsc1 (stereo not given) | -9.71%
CN(C(=O)Cc1ccc2c(c1)OCCO2)C1CCCC1 | 19.8%
COCCN1CCC2(CCN(Cc3ccc(OC)cc3)CC2)C1=O | -11.1%
O=C(CNC(=O)c1cnc2ccccc2c1O)NCCn1ccnc1 | -6.04%
CN(C)c1nc2ncc(Cl)cc2cc1C#N | 22%
O=C(CCOc1ccc(Cl)cc1)NCCCn1cccn1 | 23.1%
Cc1noc2ncc(C(=O)N3CCCC3c3ccsc3)cc12 (stereo not given) | -1.73%
O=C([C@H]1C[C@H]2OCC[C@H]2N(Cc2ccc(F)cc2)C1)N1CCCCO1 | 20.6%
Cc1cccnc1NC(=O)N(CCO)Cc1ccsc1 | -4.42%
COc1ccc(C(=O)N(C)Cc2nnc3ccccn23)cc1 | 10.4%

Compound | cytotoxicity at 70.5 h
N#Cc1ccccc1N1CCCN(C(=O)NCc2cc[nH]n2)CC1 | -6.85%
Cn1nccc1-c1ncc(-c2cc(C(=O)O)n(CC3CC3)c2)cn1 | 6.58%
CCC(Cn1ccc2[nH]c(=O)c(C#N)cc2c1=O)OC (stereo not given) | -6.98%
Cc1ccc(C)c(NC(=O)Cc2c(C)nc3c(c2C)c(=O)[nH]n3C)c1 | 29.5%
CCN(C(=O)c1nc2c(s1)CCCN2Cc1ccccc1)C(C)C | -7.5%
CCc1noc(C)c1C(=O)N1CCCC1Cn1cccn1 (stereo not given) | -3.75%
O=C(Nc1nc(-c2ccccc2)ns1)N1CCN(C(=O)C2CC2)CC1 | -0.566%
Cc1c(C(C)NC2CCN(C(C)C)CC2)cnn1-c1ccc(F)cc1F (stereo not given) | -9.98%
CC(C)c1nc(CN(C)S(=O)(=O)c2cccs2)cs1 | 1.87%
COc1c(CNC2CCCc3ccccc32)c(C(C)C)nn1C (stereo not given) | 9.34%
COC(=O)c1cccn1C1CCN(Cc2nc3ccccc3o2)CC1 | -3.04%
Fc1ccc(C2(CNC3=NCCCN3)CCC2)cc1 | -0.346%
CN(C)c1cccc(CNC(=O)Nc2cc(C#N)ccc2Cl)n1 | -4.82%
COc1ccc(NC(=O)N2CCC3(CC2)NC(=O)CC3C(=O)O)cc1Cl (stereo not given) | 13.1%
CC(C)C(=O)NCCNC(=O)C12CCC(=O)N1c1cc(Cl)ccc1S2 (stereo not given) | -1.8%
CCN1CCN(S(=O)(=O)N2CCc3ccccc3C2)[C@H]2CS(=O)(=O)C[C@H]21 | -9.8%
CC1CCN(C(=O)c2ccc(N(C)Cc3cnn(C)c3)nc2)CC1 | -7.81%
O=c1cc(-c2ccncc2)nc(-c2ccc(CN3CC[C@H](O)C3)cc2)[nH]1 | -6.15%
CC1c2ncc(COCc3ccccn3)n2CCN1C1CCCC1 (stereo not given) | -2.61%
N#Cc1ccc(N2CCCN(CC(=O)N3CCNC(=O)C3)CC2)cc1 | 3.9%
NS(=O)(=O)Cc1ccc(CNc2cncc(-n3cccn3)n2)cc1 | -14%
CN(C)C(=O)CSc1nnc(CCNC(=O)OC(C)(C)C)o1 | 22.7%
CCCc1cc(NCc2cc(C)on2)n2nccc2n1 | 14.2%

Compound | cytotoxicity at 70.5 h
Cc1cc2[nH]c(=O)c(=O)[nH]c2cc1S(=O)(=O)NC1CCCCC1 | -3.77%
O=C1CSC(c2ccc3c(c2)OCO3)c2cnn(C3CCCCC3)c2N1 (stereo not given) | -13.7%
O=C(CC1CCC2(CC1)CCN(Cc1nccs1)CC2)N1CC=CC1 | -3.04%
Cn1cc2c(n1)C(COCC1CC1)CN(Cc1ccccn1)C2 (stereo not given) | 15.6%
CC1COCCN1C(=O)COc1ccc(Oc2ccccn2)cc1 (stereo not given) | 1.4%
COc1ccc(CNC(=O)Nc2cccnc2N2CCCC2)cc1 | 20.6%
CN(Cc1cccnc1)CC1CC12CCN(Cc1nccs1)CC2 (stereo not given) | 2.96%
COCC(=O)N1CCCCC1c1ccnc(Nc2cnccn2)n1 (stereo not given) | -7.98%
CC(C)CN1C[C@@H]2OCC(=O)N(Cc3nccn3C)[C@@H]2C1 | 14%
Cc1nc(C)n(CCCn2ccnc2-c2cc3n(n2)CCCNC3)n1 | -11%
CN(Cc1cc[nH]n1)C(=O)c1ccc2c(c1)nc(N1CC[C@H](O)C1)n2C | -1.12%
Cc1cc(NC(=O)CN2CCCC2c2noc(C3CC3)n2)on1 (stereo not given) | -7.03%
O=C(c1cnc(NCC2CCCO2)c(Cl)c1)N1CCOCC1 (stereo not given) | -9.69%
CCN(C)CC(C)Cn1cnc(-c2ccccc2)c1-c1cncn1CC (stereo not given) | -10.8%
O=C(NCC1CC1)C1CN(Cc2ccncc2)Cc2ccnn2C1 (stereo not given) | -11.9%
Cc1nc(CN(C)C2CCN(CC3CCCCC3)C2)no1 (stereo not given) | -11.6%
CN1CC(=O)N(c2ccccc2)CC12CCN(CC1CC1)C2 (stereo not given) | -26.6%
CS(=O)(=O)N[C@@H]1CCO[C@]2(CCN(C(=O)c3cscn3)C2)C1 | -7.64%
CSCc1cccc(S(=O)(=O)Nc2cc(C)on2)c1 | 3.33%
O=C1c2cccnc2OC(CN2CCOCC2)CN1C1CCC1 (stereo not given) | -4.26%
COc1ccc(Cn2cc(C(=O)N(C)CCN(C)C)nn2)cc1 | -15%
COc1cccc(-c2nc(C)c(C(=O)N[C@H](CO)CC(C)C)s2)c1 | -22.7%
COc1ccc(C)cc1CN1CCCC1Cn1nc(C)nc1C (stereo not given) | -9.81%

Compound | cytotoxicity at 70.5 h
CCCN1CCN(Cc2nccn2CC)C(C)C1 (stereo not given) | 19.6%
O=C(NC1COC2(CCN(CC3CCC3)CC2)C1)c1ccccn1 (stereo not given) | 1.22%
Cc1cc(C(=O)NCCc2c(C)nn(C)c2C)nc(N2CCCCC2)n1 | 20.6%
COCC(=O)N1CCCC(c2csc(NC(C)=O)n2)C1 (stereo not given) | -8.74%
CC(C)OCCC1CCCCN1S(=O)(=O)c1cnn(C)c1 (stereo not given) | -4.85%
CC(NC(=O)NCCCn1cccn1)c1cccnc1 (stereo not given) | 18.1%
COCCN1CCCN(C(=O)c2scnc2C)CC1 | -3.53%
Cc1ccc(-c2cc(CNC(=O)N3CCCN(C)CC3)on2)cc1 | 2.1%
COCC1CN(c2ccc(C)nn2)Cc2cnn(C)c21 (stereo not given) | -7.14%
O=C(CO)N1CCCC(N2CCN(c3ccccc3F)CC2)C1 (stereo not given) | -0.739%
Cn1cc(C(=O)N[C@@H]2CN(Cc3cccs3)[C@@H]3CCCO[C@@H]32)cn1 | -14.7%
CO[C@H]1CCN(S(=O)(=O)c2cn(C)cn2)[C@H]1Cc1cccnc1 | -22.4%
CN(Cc1ccc2c(c1)OCO2)C(=O)c1ccc(=O)n(C)c1 | -1.05%
CCCc1ccc(OCCNCc2ccco2)c(OC)c1 | -1.62%
C=C(C)COc1ccccc1CNC(CC)c1ccnn1C (stereo not given) | -5.65%
CCOC(C)c1nc(Cn2cc(C(=O)NC)ccc2=O)cs1 (stereo not given) | -4.29%
CC(NC(=O)c1cccc[n+]1[O-])C1CC1 (stereo not given) | -4.24%
CCn1cc2c(n1)C(COC)CN(C(=O)COc1ccccc1C)C2 (stereo not given) | -7.2%
CN(CCOc1cccc(CN)c1)C1CCOCC1 | -8.25%
COc1ccccc1CN1C(=O)O[C@@H]2CN(CC3CC3)C[C@@H]21 | -0.52%
CCc1cc(C(F)(F)F)c2c(C)nn(CC(=O)O)c2n1 | 4.66%
Cc1nnc(NCc2cccnc2N(C)C)c(C#N)c1C | 2.49%
CNC(=O)C1(N(C)CCc2ccccc2)Cc2ccccc2C1 | -1.19%
